Columns and labels:
Type in all cases: in vivo
Megoura viciae = test: Vetch aphid (Megoura viciae), bean leaf disks in microtiterplates; conditions: foliar, 144 h, test solution 2500 mg/L, leaf disks sprayed with 2.5 μl, 6 days
Experimental: II.5 Vetch Aphid (Megoura viciae)
The active compounds were formulated in 1:3 (vol:vol) DMSO:water with different concentrations of formulated compounds.
Bean leaf disks were placed into microtiterplates filled with 0.8% agar-agar and 2.5 ppm OPUS™. The leaf disks were sprayed with 2.5 μl of the test solution and 5 to 8 adult aphids were placed into the microtiterplates which were then closed and kept at 23±1° C. and 50±5% relative humidity under fluorescent light for 6 days. Mortality was assessed on the basis of vital, reproduced aphids. Aphid mortality and fecundity was then visually assessed.

Aphis gossypii = test: Cotton aphid (Aphis gossypii, mixed life stages), method b: electrostatic spray; conditions: 120 h, sprayed, after 5 days, read-out: mortality in comparison with untreated controls
Experimental: II.1 Cotton Aphid (Aphis gossypii, Mixed Life Stages)
(§1) The active compounds were formulated in cyclohexanone as a 10,0000 ppm solution supplied in 1.3 ml ABgene® tubes. These tubes were inserted into an automated electrostatic sprayer equipped with an atomizing nozzle and they served as stock solutions for which lower dilutions were made in 50% acetone:50% water (v/v). A nonionic surfactant (Kinetic®) was included in the solution at a volume of 0.01% (v/v).
Cotton plants at the cotyledon stage were infested with aphids prior to treatment by placing a heavily infested leaf from the main aphid colony on top of each cotyledon. Aphids were allowed to transfer overnight to accomplish an infestation of 80-100 aphids per plant and the host leaf was removed. The infested plants were then sprayed by an automated electrostatic plant sprayer equipped with an atomizing spray nozzle. The plants were dried in the sprayer fume hood, removed from the sprayer, and then maintained in a growth room under fluorescent lighting in a 24 hr photoperiod at 25° C. and 20-40% relative humidity. Aphid mortality on the treated plants, relative to mortality on untreated control plants, was determined after 5 days.

Anthonomus grandis = test: Boll weevil (Anthonomus grandis), eggs on insect diet in microtiter plates; conditions: 120 h, test solution 2500 mg/L, 20 μl sprayed onto diet, 5 days, read-out: mortality (egg and larval)
Experimental: II.6 Boll Weevil (Anthonomus grandis)
The compounds were formulated in 75:25 (vol:vol) water:DMSO.
For evaluating control of boll weevil (Anthonomus grandis) the test unit consisted of 24-well-microtiter plates containing an insect diet and 20-30 A. grandis eggs. Different concentrations of formulated compounds were sprayed onto the insect diet at 20 μl, using a custom built micro atomizer, at two replications. After application, the microtiter plates were incubated at 23±1° C. and 50±5% relative humidity for 5 days. Egg and larval mortality was then visually assessed.

Aphis craccivora = test: Cowpea aphid (Aphis craccivora), spray on potted cowpea plants; conditions: sprayed, population reduction assessed after 24, 72 and 120 hours, read-out: mortality in comparison with untreated controls
Experimental: II.3 Cowpea Aphid (Aphis craccivora)
The active compounds were formulated in 50:50 (vol:vol) acetone:water. The test solution was prepared at the day of use.
Potted cowpea plants colonized with 100-150 aphids of various stages were sprayed after the pest population had been recorded. Population reduction was assesed after 24, 72, and 120 hours.

Dichromothrips Corbetti = test: Vanda/orchid thrips (Dichromothrips corbetti), dipped orchid petals; conditions: after 72 hours, read-out: mortality in comparison with untreated controls
Experimental: II.11 Activity Against Vanda/Orchid Thrips (Dichromothrips Corbetti)
The active compounds were formulated as a 50:50 (vol:vol) acetone:water solution. Surfactant (Alkamuls EL 620) was added at the rate of 0.1% (vol/vol). Vanda orchids petals were cleaned, washed and air dried prior to spraying. Petals were dipped into the test solution for 3 seconds, air dried, placed inside a resealable plastic and inoculated with 20 adults. The treated petals were kept inside the holding room at 28-29° C. and relative humidity of 50-60%. Percent mortality was recorded after 72 hours.

Myzus persicae [1] = test: Green peach aphid (Myzus persicae, mixed life stages), method b: electrostatic spray on bell pepper; conditions: 120 h, sprayed, after 5 days, read-out: mortality in comparison with untreated controls
Experimental: II.2 Green Peach Aphid (Myzus persicae, Mixed Life Stages)
as §1
Bell pepper plants at the first true-leaf stage were infested prior to treatment by placing heavily infested leaves from the main colony on top of the treatment plants. Aphids were allowed to transfer overnight to accomplish an infestation of 30-50 aphids per plant and the host leaves were removed. The infested plants were then sprayed by an automated electrostatic plant sprayer equipped with an atomizing spray nozzle. The plants were dried in the sprayer fume hood, removed, and then maintained in a growth room under fluorescent lighting in a 24-hr photoperiod at 25° C. and 20-40% relative humidity. Aphid mortality on the treated plants, relative to mortality on untreated control plants, was determined after 5 days.

Myzus persicae [2] = test: Green peach aphid (Myzus persicae) through systemic means, artificial diet under membrane; conditions: 72 h, pipetted into aphid diet, 3 days, read-out: mortality in comparison with untreated controls
Text: II.9 Activity Against Green Peach Aphid (Myzus persicae)
For evaluating control of green peach aphid (Myzus persicae) through systemic means the test unit consisted of 96-well-microtiter plates containing liquid artificial diet under an artificial membrane.
The compounds were formulated using a solution containing 75% v/v water and 25% v/v DMSO. Different concentrations of formulated compounds were pipetted into the aphid diet, using a custom built pipetter, at two replications. After application, 5 to 8 adult aphids were placed on the artificial membrane inside the microtiter plate wells The aphids were then allowed to suck on the treated aphid diet and incubated at about 23+1° C. and about 50+5% relative humidity for 3 days. Aphid mortality and fecundity was then visually assessed.

## Cc1c(C(=O)Nc2ccnnc2)cnn1CC(F)(F)F [Compound 1, 5-Methyl-1-(2,2,2-trifluoroethyl)-1H-pyrazole-4-carboxylic acid pyridazin-4-ylamide]
Megoura viciae
  mortality at 2500 µg/mL: ≥ 90%
Aphis gossypii
  mortality at 300 ppm: ≥ 75%
Anthonomus grandis
  mortality at 2500 µg/mL: ≥ 50%
Aphis craccivora
  mortality at 300 ppm: ≥ 90%
Dichromothrips Corbetti
  mortality at 500 ppm: ≥ 50%
Myzus persicae [1]
  mortality at 300 ppm: ≥ 75%
Myzus persicae [2]
  mortality at 2500 ppm: 100%
